Data set [1] concerns BJAB lymphoblastoid cell line. Put plainly: Cytotoxicity by colony formation in microtiter plates, BJAB. Format: cell-based. To be noted: for Concentration at which colony formation was inhibited by greater than 50 percent: treatment for 7 days. How it is done: (§1) Heparinized whole venous blood was obtained from the umbilical cords of newborn infants (human umbilical cord lymphocytes) or EBV-seronegative volunteers (peripheral blood lymphocytes) in collaboration with Temple University Hospital, Philadelphia, PA. Mononuclear leukocytes were prepared by the Ficoll-Hypaque method of Boyum (Scand. J. Clin. Invest. 21 (Sup. 97), 77 (1968)) and were cultured in RPMI-1640 supplemented with 20% fetal bovine serum as described (Henderson et al, Virology 76, 152 (1977)). The lymphoblastoid cell lines BJAB and RAJI were gifts of Drs. Werner and Gertrude Henle, Children's Hospital, University of Pennsylvania, Philadelphia, PA, and were cultured as described above. The lymphoblastoid line C85-5C was obtained by transformation of human umbilical cord lymphocytes following infection with EBV and maintained as described aove. Cultured mouse L cells were maintained in minimum essential medium (Eagle) supplemented with Earle's salts, L-glutamine and 6% fetal bovine serum. Interferon-treated mouse L cells were supplied by Dr. Esther H. Chang, National Cancer Institute, NIH. […] EBV stocks were maintained at -70° C. until use. Human umbilical cord lymphocytes and peripheral blood lymphocytes were infected as described (Henderson et al, Supra).
(§2) Therefore, the effect of these agents on colony formation in closely related lymphoblastoid cell lines was determined (Table 3).

The nature of data set [2]: Stability (hydrolysis) in HeLa cell extracts. Format: in vitro ADME. To be noted: 500 μM; cellulose tlc (solvents A and B). As for the experimental part:
FIG. 2 is a stability representation of (2'-5')p3 A(pA)n and (2'-5')p3 3'dA(p3'dA)n in HeLa cell extracts.
The stability of (2'-5')ppp3'dA(p3'dA)n in HeLa cell extracts was compared to that of (2'-5')pppA(pA)n. […] With 500 μM (2'-5')pppA(pA)n, there was a 50% hydrolysis in 45 min as determined by DEAE cellulose chromatography; with 500 μM authentic core analog, (2'-5')3'dA(p3'dA)2, there was no hydrolysis as determined by cellulose tlc (solvents A and B). Neither cordycepin nor 3'dAMP was detected. The lack of hydrolysis of the analog may be similar to the lack of hydrolysis of (3'-5')2'-deoxyoligonucleotides by the 2',5'-phosphodiesterase.

Data set [3] relates to Herpes Simplex Virus Type 1 (HSV-1). In words: Infected centers assay: HSV-1 exposed leukocytes plated onto human foreskin fibroblast monolayers, cytopathic effects (cpe). Format: cell-based. To be noted: for development of cpe from HSV-1 infected leukocytes / HSV-1 replication: 72 hr incubation, human foreskin fibroblast monolayers. As for the experimental part: Therefore, we employed an infected centers assay utilizing lymphocytes to determine the ability of (2'-5') oligonucleotides to inhibit HSV-1. After incubation for 72 hr with or without (2'-5')oligonucleotides, leukocytes exposed to HSV-1 were plated onto human foreskin fibroblast monolayers (Table 2).

Data set [4] has as its system Raji lymphoblastoid cell line. In words: Cytotoxicity by colony formation in microtiter plates, Raji. Format: cell-based. To be noted: for Concentration at which colony formation was inhibited by greater than 50 percent: treatment for 7 days. How it is done:
as §1, §2

Data set [5] concerns Epstein-Barr Virus (EBV). In words: EBV-induced stimulation of DNA synthesis in EBV infected human lymphocytes. The format is cell-based. How it is done: as §1
A further data set has as its system uninfected lymphocytes. Put plainly: DNA synthesis of uninfected lymphocytes. The format is cell-based, human. How it is done: as §1
(§3) The antiviral properties of 5'-dephosphorylated "core" (2'-5')A(pA)2, (2'-5')A(pA)3 and (2'-5')3'dA-(p3'dA)2 were compared to the antiviral properties of IFN-α and IFN-β. The (2'-5')oligonucleotides and interferons inhibited Epstein-Barr Virus (EBV)-induced stimulation of DNA synthesis in EBV infected human lymphocytes. […] The "core" 3'-deoxy (2'-5') oligonucleotide analog inhibited EBV-induced morphological transformation of lymphocytes much the same as "core" (2'-5')A(pA)2 and (2'-5')A(pA)3.

In data set [6] the test system is Epstein-Barr Virus (EBV). Put plainly: EBV-induced morphological transformation of lymphocytes. The note with it: absence of interferon. The format is cell-based. How it is done: as §1, §3
Data set [7] concerns lymphoblastoid cell lines. Put plainly: Lymphoblast colony formation / cytotoxicity, cell line not given. Format: cell-based. How it is done:
as §1, with “Mononuclear leukocytes were prepared by the Ficoll-Hypaque method of Boyum (Scand. J. Clin. Invest. 21 (Sup. 97), 77 (1968)) and were cultured in RPMI-1640 supplemented with 20% fetal bovine serum as described (Henderson et al, Virology 76, 152 (1977)).” left out
as §2

For data set [8], the system named is C85-5C lymphoblastoid cell line. In words: Cytotoxicity by colony formation in microtiter plates, C85-5C. The note with it: treatment for 7 days. The format is cell-based, human. As for the experimental part: as §1, with “Human umbilical cord lymphocytes and peripheral blood lymphocytes were infected as described (Henderson et al, Supra).” left out
as §2

Several values for one entry are separate records, joined by “and”; a condition that tells them apart may be missing. Equal values may be shown once. Read-outs that look alike come from different tables or passages of the source. Where only a bound is given, the exact number is not on record here.

Consider `Nc1ncnc2c1ncn2[C@@H]1O[C@H](COP(=O)(O)O[C@@H]2C[C@@H](COP(=O)(O)O[C@@H]3C[C@@H](CO)O[C@H]3n3cnc4c(N)ncnc43)O[C@H]2n2cnc3c(N)ncnc32)C[C@H]1O` [(2'-5')3'dA(p3'dA)2, 3'-deoxyadenylyl (2'-5')3'-deoxyadenylyl(2'-5')3'-deoxyadenosine], for which the “concentration found toxic (inhibition of colony formation)” value was “no toxicity” in [1], more than 300 µM in data set [1] (listed as (2'-5')2'dA(p3'dA)3), “no toxicity” in data set [4] and more than 300 µM in data set [4] (listed as (2'-5')2'dA(p3'dA)3). Also, the “Concentration at which colony formation was inhibited by greater than 50 percent” value in [1] and in data set [4] was more than 300 µM throughout. Also, the “hydrolysis in HeLa cell extracts” value in data set [2] is listed as “no hydrolysis”. Further, the “cpe at given number of HSV-exposed leukocytes per cell” value (“cpe at given number … per cell” for short) in [3] (10 μM, 2 × 10^5 leukocytes) was “+++”; in data set [3] (10 μM, 2.2 × 10^4 leukocytes), “+”; in [3] (10 μM, 6.7 × 10^4 leukocytes), “++”; in data set [3] (50 μM, 2 × 10^5 leukocytes) it was “++”; in [3] (50 μM, 2.2 × 10^4 leukocytes), “+”; in data set [3] (50 μM, 6.7 × 10^4 leukocytes), “++”. Further, the “cpe at given number … per cell” value was “++” in data set [3] (75 μM, 2 × 10^5 leukocytes); 0 in data set [3] (75 μM, 2.2 × 10^4 leukocytes); “+” in data set [3] (75 μM, 6.7 × 10^4 leukocytes); 0 in data set [3] (150 μM, 2.2 × 10^4 leukocytes). The “development of cpe from HSV-1 infected leukocytes / HSV-1 replication” value in data set [3] is “less effective in inhibiting the development of cpe”. The “EBV-induced stimulation of DNA synthesis” value with Epstein-Barr Virus (EBV) [5] is recorded as “inhibited only viral-induced DNA synthesis”. Moreover, the “DNA synthesis of uninfected lymphocytes” value in the data set on uninfected lymphocytes is given as “inhibited only viral-induced DNA synthesis”. For the same molecule, the “EBV-induced morphological transformation of lymphocytes” value in the data set on Epstein-Barr Virus (EBV) [6] is reported as “inhibited”.

As for `Nc1ncnc2c1ncn2[C@@H]1O[C@H](COP(=O)(O)O[C@@H]2[C@H](O)[C@@H](COP(=O)(O)O[C@@H]3[C@H](O)[C@@H](CO)O[C@H]3n3cnc4c(N)ncnc43)O[C@H]2n2cnc3c(N)ncnc32)[C@@H](O)[C@H]1O` [(2'-5')A(pA)2, adenylyl-(2'-5')adenylyl(2'-5')adenosine], the “concentration found toxic (inhibition of colony formation)” value in [1] is 150 to 300 µM and 300 µM; in data set [4] it was 150 to 300 µM and 300 µM. In addition, the entries for the “Concentration at which colony formation was inhibited by greater than 50 percent” value in [1] and in [4] were 150 to 300 µM and 300 µM, respectively. The “cpe at given number … per cell” value is recorded as “+++” in data set [3] (10 μM, 2 × 10^5 leukocytes); 0 in data set [3] (10 μM, 2.2 × 10^4 leukocytes); “++” in data set [3] (10 μM, 6.7 × 10^4 leukocytes); “++” in data set [3] (50 μM, 2 × 10^5 leukocytes); 0 in [3] (50 μM, 2.2 × 10^4 leukocytes); “++” in data set [3] (50 μM, 6.7 × 10^4 leukocytes). In addition, the “cpe at given number … per cell” value is reported as “++” in [3] (75 μM, 2 × 10^5 leukocytes); 0 in data set [3] (75 μM, 2.2 × 10^4 leukocytes); 0 in data set [3] (75 μM, 6.7 × 10^4 leukocytes); “+” in data set [3] (150 μM, 2 × 10^5 leukocytes); 0 in data set [3] (150 μM, 2.2 × 10^4 leukocytes); 0 in [3] (150 μM, 6.7 × 10^4 leukocytes). Further, in [3], the “development of cpe from HSV-1 infected leukocytes / HSV-1 replication” value was “inhibited the development of cpe”. Moreover, in the data set with Epstein-Barr Virus (EBV) [5], the “EBV-induced stimulation of DNA synthesis” value is reported as “potent inhibitors”. Further, the “DNA synthesis of uninfected lymphocytes” value with uninfected lymphocytes is “potent inhibitors”. Further, the “EBV-induced morphological transformation of lymphocytes” value in the data set on Epstein-Barr Virus (EBV) [6] was “inhibited”.

`Nc1ncnc2c1ncn2[C@@H]1O[C@H](COP(=O)(O)O[C@@H]2[C@H](O)[C@@H](COP(=O)(O)O[C@@H]3[C@H](O)[C@@H](COP(=O)(O)O[C@@H]4[C@H](O)[C@@H](CO)O[C@H]4n4cnc5c(N)ncnc54)O[C@H]3n3cnc4c(N)ncnc43)O[C@H]2n2cnc3c(N)ncnc32)[C@@H](O)[C@H]1O` [(2'-5')A(pA)3, adenylyl(2'-5')adenylyl(2'-5')-adenylyl (2'-5')adenosine]: the “Concentration at which colony formation was inhibited by greater than 50 percent” value in data set [1] came out at 150 µM; in data set [4], 50 µM. For the same molecule, the “cpe at given number … per cell” value is reported as “++” in data set [3] (10 μM, 2 × 10^5 leukocytes); 0 in data set [3] (10 μM, 2.2 × 10^4 leukocytes); “+” in data set [3] (10 μM, 6.7 × 10^4 leukocytes); “+” in [3] (50 μM, 2 × 10^5 leukocytes); 0 in [3] (50 μM, 2.2 × 10^4 leukocytes); 0 in [3] (50 μM, 6.7 × 10^4 leukocytes). Besides, the “cpe at given number … per cell” value in [3] (75 μM, 2 × 10^5 leukocytes) is given as “++”; in [3] (75 μM, 2.2 × 10^4 leukocytes), 0; in [3] (75 μM, 6.7 × 10^4 leukocytes) it was 0; in data set [3] (150 μM, 2 × 10^5 leukocytes), “+”; in data set [3] (150 μM, 2.2 × 10^4 leukocytes), 0; in [3] (150 μM, 6.7 × 10^4 leukocytes), 0. Moreover, in [3], the “development of cpe from HSV-1 infected leukocytes / HSV-1 replication” value is listed as “inhibited the development of cpe”. For the same molecule, in the data set on Epstein-Barr Virus (EBV) [5], the “EBV-induced stimulation of DNA synthesis” value is on record as “potent inhibitors”. For the same molecule, the “DNA synthesis of uninfected lymphocytes” value in the data set with uninfected lymphocytes is listed as “potent inhibitors”. Further, in the data set with Epstein-Barr Virus (EBV) [6], the “EBV-induced morphological transformation of lymphocytes” value is listed as “inhibited”.

For the molecule IFN-α, in the data set on Epstein-Barr Virus (EBV) [5], the “EBV-induced stimulation of DNA synthesis” value is given as “inhibited”. In data set [7], the “cytotoxicity / effect on lymphoblast colony formation” value was “no appreciable effect”. For the same molecule, the “Concentration at which colony formation was inhibited by greater than 50 percent” value in [8] was more than 1000 U/ml.

These data come from patent US4464359A, “(2'-5')-Oligo (3'-deoxyadenylate) and derivatives thereof” (Research Corporation, priority 1981, dated 1984).
